Values quoted from earlier work as cited in patent US20240165126A1 (TONIX PHARMACEUTICALS HOLDING CORP., priority 2021, published 2024).

Conditions: orally administered; extensive first pass hepatic metabolism; Smith et al. 2012

C=CCN1CC[C@]23c4c5ccc(O)c4O[C@H]2C(=O)CC[C@@]3(O)[C@H]1C5 [Naloxone]
systemic bioavailability: ≤ 2%
